Test results from article PMC4755756, “Catalysis-dependent selenium incorporation and migration in the nitrogenase active site iron-molybdenum cofactor” (eLife, 2015).

Experiments:
[1] = target: T1, nitrogenase MoFe-protein (Av1) (Azotobacter vinelandii, UniProt P07328); assay: inhibition of acetylene reduction, Dixon plot (gas chromatography); format: biochemical
T1 construct: gene nifD; purified Av1, (αβ)2 tetramer, with Av2; with MoFe-protein β subunit (NifK); Fe-protein (Av2)

[2] = target: T1, nitrogenase MoFe-protein (Av1); assay: inhibition of acetylene reduction, Dixon plot (gas chromatography); Se incorporation seen by crystallography; format: biochemical
Source text: inhibition of acetylene reduction, Dixon plot (gas chromatography); Se incorporation seen by crystallography on nitrogenase MoFe-protein (Av1) | SeCN^- is a potent, yet reversible inhibitor of acetylene reduction

SMILES: N#CS [thiocyanate]
- Ki [1]: 12.7 ± 1.2 mM

SMILES: N#C[SeH] [selenocyanate]
- Ki [2]: 410 ± 30 µM
